In patent publication EP1148124A1 (priority 1999, dated 2000):
Like-named read-outs stand apart in the source and are kept apart here.

What was measured:
[1] = tested on: aryl hydrocarbon receptor; experiment: Luciferase assay for clone selection (Example 2), firefly luciferase ligand responsive reporter gene
[2] = Reporter assay (No. 2), cell number reporter gene (sea pansy luciferase, pRL-TK), clone of Example 3; assay type: cell-based; conditions: mouse, hepa1c1c7 cells
Experimental: For the measured values of the amount of expression of the cell number reporter gene, a ratio is determined of the measured value in the test substance added group to the measured value in the only solvent added group (control group). When the ratio is, for example, in the range of 0.8 to 1.2, the measured value of the amount of expression of the ligand responsive reporter gene in the test substance added group is selected for evaluating the agonist or antagonist activity of the test substance against the ability of a ligand responsive transcriptional regulatory factor to promote transcription. When the ratio takes a small value such as smaller than 0.8, for example, it is possible that the test substance has cytotoxicity. In contrast, when the ratio takes a large value such as greater than 1.2, for example, it is possible that the test substance has activity against the transcriptional regulatory system of a gene without mediation of a ligand responsive transcriptional regulatory factor. However, the range of this ratio suitable for selecting the measured value of the amount of expression of the […] reporter gene may vary depending on certain properties of the present cells used and the conditions of measurement, and it is not limited to the above examples of numerical values.
Separately, the ligand responsive reporter gene containing plasmid pGV-Ya-XREx5 constructed in Example 1 was digested with Bam HI. Further, the cell number reporter gene containing plasmid pRL-TK (marketed by Toyo Ink) was digested with Bam HI, and the neomycin resistance (aminoglycoside phosphotransferase) gene containing plasmid pRc/RSV (available from INVITROGEN) was digested with Hind III. These three digested plasmids, i.e., Bam HI digested pGV-Ya-XREx5 (5.6 µg), Bam HI digested pRL-TK (5.6 µg), and Hind III digested pRc/RSV (1 µg), were mixed with 600 µl of αMEM medium (mixture C), while 72 µl of lipofectin (available from GIBCO-BRL) was mixed with 600 µl of αMEM medium (mixture D). After being left at room temperature for 30 minutes, mixtures C and D were combined together and left at room temperature for 10 minutes. After the Hepalclc7 cells cultured overnight as described above were then washed once with αMEM medium, there was added a half volume of a solution prepared by adding and mixing additional 10.8 ml of αMEM medium into the above mixture (C + D). Culturing of the resulting mixture was carried out for 5 hours. The medium was then replaced with 10% serum containing αMEM medium, followed by further culturing for 2 days. Subsequently, the cells were scratched from the petri dishes and collected, and the collected cells were suspended in 10% serum containing αMEM medium to have the total volume of 100 ml. The resulting cell suspension was plated on 96-well plates at a ratio of 100 µl/well. After these plates were cultured overnight, a medium prepared by dissolving G418 in 10% serum containing αMEM medium to have a concentration of 3.2 mg/ml was added at a ratio of 100 µl/well (G418 final concentration 1.6 mg/ml). Culturing was further continued, during which the medium was replaced with 10% serum containing αMEM medium containing 800 µg/ml G418 at a rate of once per 4 to 5 days. The volume of the medium was set at 200 µl/well. […] To the first plate, only DMSO was added (solvent control), and to the second plate, 3-MC dissolved in DMSO was added so that the final concentration of 3-MC in the second plate came to 2 µm per well. The first and second plates were then cultured overnight. In this case, the DMSO or the solution of 3-MC in DMSO was added so that the final concentration of DMSO in each well came to 0.04%. The third plate was further cultured as the master plate. From each well of each plate, to which DMSO or 3-MC had been added, the medium was removed, and the wells were washed twice with PBS(-). […]

[3] = tested on: Ah receptor; experiment: Reporter assay (No. 2), ligand responsive reporter gene (firefly luciferase, pGV-Ya-XREx5), clone of Example 3; assay type: cell-based, mouse
[4] = final conc. 1 nM, about 6 hours
[5] = final conc. 10 nM, about 6 hours
[6] = final conc. 100 nM, about 6 hours
[7] = final conc. 1000 nM, about 6 hours
[8] = final conc. 10000 nM, about 6 hours
[9] = final conc. 50000 nM, about 6 hours

Cc1ccc2cc3c(ccc4ccccc43)c3c2c1CC3 [3-MC, 3-methylcholanthrene]
increase in the expression of the firefly luciferase gene by the addition of 3-MC [1]: about 10 times

c1ccc2c(c1)cc1ccc3cccc4ccc2c1c34 [Benzo[a]pyrene, benzo[a]pyrene]
viability at 6 h, 0.001 µM ([2]; final conc. 1 nM, about 6 hours, ratio to 0 nM, read-out: Amount of luminescence by sea pansy luciferase (from pRL-TK) Ratio): 90%
viability at 6 h, 0.01 µM ([2]; final conc. 10 nM, about 6 hours, ratio to 0 nM, read-out: Amount of luminescence by sea pansy luciferase (from pRL-TK) Ratio): 90%
viability at 6 h, 0.1 µM ([2]; final conc. 100 nM, about 6 hours, ratio to 0 nM, read-out: Amount of luminescence by sea pansy luciferase (from pRL-TK) Ratio): 80%
viability at 6 h, 1 µM ([2]; final conc. 1000 nM, about 6 hours, ratio to 0 nM, read-out: Amount of luminescence by sea pansy luciferase (from pRL-TK) Ratio): 90%
viability at 6 h, 10 µM ([2]; final conc. 10000 nM, about 6 hours, ratio to 0 nM, read-out: Amount of luminescence by sea pansy luciferase (from pRL-TK) Ratio): 80%
viability at 6 h, 50 µM ([2]; final conc. 50000 nM, about 6 hours, ratio to 0 nM, read-out: Amount of luminescence by sea pansy luciferase (from pRL-TK) Ratio): 80%
Amount of luminescence by firefly luciferase (from pGV-Ya-XREx5) Measured value [3, 4]: 0.414 x 10^2
Amount of luminescence by firefly luciferase (from pGV-Ya-XREx5) Ratio ([3]; final conc. 1 nM, about 6 hours, ratio to 0 nM): 1.7
Amount of luminescence by firefly luciferase (from pGV-Ya-XREx5) Measured value [3, 5]: 0.928 x 10^2
Amount of luminescence by firefly luciferase (from pGV-Ya-XREx5) Ratio ([3]; final conc. 10 nM, about 6 hours, ratio to 0 nM): 3.7
Amount of luminescence by firefly luciferase (from pGV-Ya-XREx5) Measured value [3, 6]: 1.72 x 10^2
Amount of luminescence by firefly luciferase (from pGV-Ya-XREx5) Ratio ([3]; final conc. 100 nM, about 6 hours, ratio to 0 nM): 6.9
Amount of luminescence by firefly luciferase (from pGV-Ya-XREx5) Measured value [3, 7]: 3.12 x 10^2
Amount of luminescence by firefly luciferase (from pGV-Ya-XREx5) Ratio ([3]; final conc. 1000 nM, about 6 hours, ratio to 0 nM): 12
Amount of luminescence by firefly luciferase (from pGV-Ya-XREx5) Measured value [3, 8]: 4.54 x 10^2
Amount of luminescence by firefly luciferase (from pGV-Ya-XREx5) Ratio ([3]; final conc. 10000 nM, about 6 hours, ratio to 0 nM): 18
Amount of luminescence by firefly luciferase (from pGV-Ya-XREx5) Measured value [3, 9]: 5.76 x 10^2
Amount of luminescence by firefly luciferase (from pGV-Ya-XREx5) Ratio ([3]; final conc. 50000 nM, about 6 hours, ratio to 0 nM): 23

C[C@@H]1C[C@H]2[C@@H]3CCC4=CC(=O)C=C[C@]4(C)[C@@]3(F)[C@@H](O)C[C@]2(C)[C@@]1(O)C(=O)CO [Dexamethasone, dexamethasone]
viability at 6 h, 0.001 µM [2]: 100%
viability at 6 h, 0.01 µM [2]: 100%
viability at 6 h, 0.1 µM [2]: 90%
viability at 6 h, 1 µM [2]: 80%
viability at 6 h, 10 µM [2]: 100%
viability at 6 h, 50 µM [2]: 110%
Amount of luminescence by firefly luciferase (from pGV-Ya-XREx5) Measured value [3, 4]: 3.71 x 10^2
Amount of luminescence by firefly luciferase (from pGV-Ya-XREx5) Measured value [3, 5]: 3.54 x 10^2
Amount of luminescence by firefly luciferase (from pGV-Ya-XREx5) Measured value [3, 6]: 3.39 x 10^2
Amount of luminescence by firefly luciferase (from pGV-Ya-XREx5) Measured value [3, 7]: 3.22 x 10^2
Amount of luminescence by firefly luciferase (from pGV-Ya-XREx5) Measured value [3, 8]: 3.53 x 10^2
Amount of luminescence by firefly luciferase (from pGV-Ya-XREx5) Measured value [3, 9]: 3.73 x 10^2
Amount of luminescence by firefly luciferase (from pGV-Ya-XREx5) Ratio ([3]; hepa1c1c7 cells, 6 h, 0.001 µM): 1.3
Amount of luminescence by firefly luciferase (from pGV-Ya-XREx5) Ratio ([3]; hepa1c1c7 cells, 6 h, 0.01 µM): 1.2
Amount of luminescence by firefly luciferase (from pGV-Ya-XREx5) Ratio ([3]; hepa1c1c7 cells, 6 h, 0.1 µM): 1.2
Amount of luminescence by firefly luciferase (from pGV-Ya-XREx5) Ratio ([3]; hepa1c1c7 cells, 6 h, 1 µM): 1.1
Amount of luminescence by firefly luciferase (from pGV-Ya-XREx5) Ratio ([3]; hepa1c1c7 cells, 6 h, 10 µM): 1.2
Amount of luminescence by firefly luciferase (from pGV-Ya-XREx5) Ratio ([3]; hepa1c1c7 cells, 6 h, 50 µM): 1.3
